Source: PubChem BioAssay (NCI)
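Interpolation was linear, between the two tested concentrations surrounding the appropriate level; five concentrations were tested over 48 hours in 96-well plates. At the TGI there is no net growth.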 Where a SMILES comes first, the peptide text is derived from it. [ ]: non-standard residue; d: D form. The star is where a group is joined. ξ: configuration not given here. Propanoyl(3-(4-MeO-Ph)) = COc1ccc(CCC(=O)*)cc1; Thr(3ξ) = CC(O)[C@H](N)C(=O)O; dNMeL = CN[C@H](CC(C)C)C(=O)O; ξLac = CC(O)C(=O)O

How the values were obtained:
Experiment in all cases: growth of human tumour cells (NCI), 48 h
786-0 renal = system: 786-0 renal
CCRF-CEM leukemia = system: CCRF-CEM leukemia
EKVX NSCLC = system: EKVX NSCLC
HCC-2998 colon = system: HCC-2998 colon
HCT-116 colon = system: HCT-116 colon
M14 melanoma = system: M14 melanoma
MOLT-4 leukemia = system: MOLT-4 leukemia
NCI-H23 lung = system: NCI-H23 lung
NCI/ADR-RES ovarian = system: NCI/ADR-RES ovarian
SNB-75 CNS = system: SNB-75 CNS
T-47D breast = system: T-47D breast

| Structure (SMILES) | TGI (786-0 renal) [µM] | TGI (CCRF-CEM leukemia) [µM] | TGI (EKVX NSCLC) [µM] | TGI (HCC-2998 colon) [µM] | TGI (HCT-116 colon) [µM] | TGI (M14 melanoma) [µM] | TGI (MOLT-4 leukemia) [µM] | TGI (NCI-H23 lung) [µM] | TGI (NCI/ADR-RES ovarian) [µM] | TGI (SNB-75 CNS) [µM] | TGI (T-47D breast) [µM] |
| --- | --- | --- | --- | --- | --- | --- | --- | --- | --- | --- | --- |
| COC(=O)[C@@H](NC(=O)[C@@H](CC(C)C)N(C)C(=O)[C@@H]1CCCN1C(=O)C(C)O)C(C)OC(=O)CCc1ccc(OC)cc1 (stereo partly drawn) (H-[ξLac]P[dNMeL][Thr(3ξ)](Propanoyl(3-(4-MeO-Ph)))-OMe) | > 100 | > 100 | > 100 | > 100 | > 100 | > 100 | > 100 | > 100 | > 100 | > 100 | > 100 |
| COC12OC3CC4(C)C(=CC3OC(OC(C)C1O)C2O)CCC1C4CCC2(C)C(c3ccc(=O)oc3)CCC12O (stereo not drawn) | 0.00195 | 0.00208 | < 0.001 | 0.00945 | 0.00193 | 0.00497 | < 0.001 | 0.00177 | 0.00258 | 0.00571 | 0.0782 |
| COC(=O)C(Cc1ccccc1)NC(=O)c1ccc(CNC(=S)NCc2cccc(CNC(=S)NCc3ccccc3)c2)cc1 (stereo not drawn) | > 62.5 | > 62.5 | > 62.5 | > 62.5 | > 62.5 | > 62.5 | > 62.5 | > 62.5 | > 62.5 | > 62.5 | > 62.5 |
| CCCCCC(O)(CCCCC)CCCCCCCCC1=C(O)c2ccccc2C(=O)C1=O | 30.5 | > 100 | 60.1 | 30.5 | 15.2 | 24.8 | 12.4 | 21.9 | 21.8 | > 80.2 | 75.2 |
| CNc1ncnc2c1nnn2C | > 100 | > 100 | > 100 | > 100 | > 100 | > 100 | > 100 | > 100 | > 100 | > 100 | > 100 |
| O=C(Cn1c(=O)oc2ccc(C(=O)c3ccccc3Cl)cc21)c1ccc([N+](=O)[O-])cc1 | > 100 | > 100 | > 100 | 34.6 | 35.6 | 47.5 | > 100 | > 100 | > 100 | > 100 | 56.5 |
| COc1ccc(N2C(N)=C(C#N)C(C#N)(C#N)C2c2cccc([N+](=O)[O-])c2)cc1 (stereo not drawn) | 29.1 | > 24.6 | 39.7 | 31.8 | 23.8 | 35.6 | 25.7 | 30.8 | 43.2 | 35.1 | 28 |
| NNC(=O)CCC(NS(=O)(=O)c1ccc(Cl)cc1)C(=O)NN (stereo not drawn) | > 100 | > 100 | > 100 | > 100 | > 100 | > 100 | > 100 | > 100 | > 100 | > 100 | > 100 |
| NC(=O)C[C@H](NC(=O)C1(NC(=O)[C@H](Cc2ccc(CP(=O)(O)O)cc2)NC(=O)C(=O)O)CCCCC1)C(=O)NCCCc1cccc2ccccc12 | > 10 | > 10 | > 10 | > 10 | > 10 | > 10 | > 10 | > 10 | > 10 | > 10 | > 10 |
| COc1cc(/C=c2/c3ccccc3n3c2cc(-c2ccccc2)[n+]3C)cc(OC)c1OC | 16.4 | > 28.9 | 22.4 | 19 | 6.96 | > 35.8 | > 64.9 | 14.8 | > 100 | 15.2 | 19.3 |
| S=c1nc2sc3c(c2c(Nc2ccc(Br)cc2)[nH]1)CCN(N1CCc2c(sc4nc(=S)[nH]c(Nc5ccc(Br)cc5)c24)C1)C3 | 15.5 | > 50 | > 50 | > 50 | > 50 | 17.1 | > 50 | > 50 | > 50 | > 50 | > 50 |
| Clc1cc(OCC23CC4CC(CC(C4)C2)C3)nc(OCC23CC4CC(CC(C4)C2)C3)n1 | > 100 | > 100 | > 100 | > 100 | > 100 | > 100 | > 100 | > 100 | > 100 | > 100 | > 100 |
| CCOC(=O)C1C[C@H]2CO[C@H](c3ccccc3)N2C1=O (stereo partly drawn) | > 100 | > 100 | > 100 | > 100 | > 100 | > 100 | > 100 | > 100 | > 100 | > 100 | > 100 |
| NC(=O)c1ncn2c(=O)n(CCl)nnc12 | > 100 | > 100 | > 100 | > 100 | > 100 | > 100 | > 100 | > 100 | > 100 | > 100 | > 100 |
| COc1nc2ccc(CNc3ccc(C(=O)O)cc3)cc2nc1OC | > 10 | > 10 | > 10 | > 10 | > 10 | > 10 | > 10 | > 10 | > 10 | > 10 | > 10 |
| COP(=O)(OC)c1ccc(NCc2cc(O)ccc2O)cc1 | 58.1 | > 95.3 | 56.4 | 51.6 | > 59.7 | > 61.1 | > 86.3 | > 75.8 | > 84.5 | > 77.7 | 70.1 |
| CCNc1cc2c3c(c1)CCCN3CCC2 | 26 | 6.43 | 48.4 | 70.8 | 19.2 | 63.7 | 50.6 | 21.9 | 52.2 | 32.7 | 67.9 |
| O=C1c2ccccc2-c2nnc(-c3ccc(Cl)cc3)cc21 | > 10 | > 10 | > 10 | > 10 | > 10 | > 10 | > 10 | > 10 | > 10 | > 10 | > 10 |
| O=C(Cc1ccccc1)N=Nc1c(O)[nH]c2ccccc12 | > 100 | > 100 | > 100 | > 100 | > 100 | > 100 | > 100 | > 100 | > 100 | > 100 | > 100 |
| CCOC(=O)C1=CC(C)(C(=O)OCC)Nc2c(nc(SC)n(C)c2=O)N1 (stereo not drawn) | > 10 | > 10 | > 10 | > 10 | > 10 | > 10 | > 10 | > 10 | > 10 | > 10 | > 10 |
| O=[N+]([O-])c1ccc2nc(/C=C(\O)c3ccccc3)c(/C=C(\O)c3ccccc3)nc2c1 | 44.3 | 35.8 | > 100 | > 100 | > 37.8 | > 67.3 | 40.5 | > 60.4 | > 89 | 32.1 | 37.3 |
| COc1ccc2oc(=Nc3ccc(F)cc3)c(C(N)=O)cc2c1 | 40.4 | > 100 | > 100 | > 100 | > 100 | > 100 | > 100 | > 100 | > 100 | 29.5 | 94.8 |
| Clc1ccc2nc(CC3CCCC3)[nH]c2c1 | 33.4 | > 100 | 43.5 | 41.8 | 32 | 38.2 | 35 | 30.6 | 35.6 | 56 | 72.5 |
